These results are taken from ChEMBL document CHEMBL1140713, “2,3-dihydro-6,7-dihydroxy-1H-isoindol-1-one-based HIV-1 integrase inhibitors” (J Med Chem, 2008).

Assay [1] concerns the target T1, Human immunodeficiency virus type 1 integrase (Human immunodeficiency virus 1, UniProt Q7ZJM1). Put plainly: Inhibition of recombinant HIV1 integrase-mediated 3'-processing activity in presence of magnesium.
The target in assay [2] is T1, Human immunodeficiency virus type 1 integrase. Put plainly: Inhibition of recombinant HIV1 integrase strand transfer activity in presence of magnesium.
Assay [3] shares this target. Put plainly: Inhibition of recombinant HIV1 integrase-mediated 3'-processing activity in presence of manganese.
Assay [4] has the same target. Briefly: Inhibition of recombinant HIV1 integrase strand transfer activity in presence of manganese.
The test system of assay [5] is Human immunodeficiency virus 1. Put plainly: Antiviral activity against HIV1 in cell based assay. Type of assay: functional, organism-based.

Where only a bound is given, the exact number is not on record here.

T1 sequence (Q7ZJM1 whole entry): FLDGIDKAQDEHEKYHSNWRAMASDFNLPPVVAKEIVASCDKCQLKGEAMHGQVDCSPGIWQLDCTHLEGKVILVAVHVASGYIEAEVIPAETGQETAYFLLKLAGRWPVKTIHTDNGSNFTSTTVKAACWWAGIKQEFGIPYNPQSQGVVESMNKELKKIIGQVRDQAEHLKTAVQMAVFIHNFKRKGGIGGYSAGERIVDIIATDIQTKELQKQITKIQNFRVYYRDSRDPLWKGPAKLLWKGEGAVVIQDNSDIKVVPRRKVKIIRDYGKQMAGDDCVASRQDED

For orientation: IC50 means the concentration that gives 50% inhibition. With `O=C(NN1Cc2ccc(O)c(O)c2C1=O)c1ccccc1O`, the IC50 was more than 333 µM in assay [1] and 293 µM in assay [2].
On to `O=C(NN1Cc2ccc(O)c(O)c2C1=O)c1ccc(F)cc1`, for which the IC50 in assay [1] is more than 333 µM; in assay [2], 170 µM.
The corresponding values for `O=C1c2c(ccc(O)c2O)CN1NS(=O)(=O)c1ccc(F)cc1` are 69 µM and 21 µM.
Consider `COc1cccc(C(=O)NNC(=O)c2cccc(O)c2O)c1O`, for which the half-inhibitory concentration (IC50) came out at 11 µM in assay [3], 138 µM in assay [1], 44 µM in assay [2] and 9 µM in assay [4].
The corresponding values for `O=C(NNC(=O)c1cccc(O)c1O)c1cccnc1` are more than 333 µM, more than 333 µM, more than 333 µM and 112 µM.
By EC50 is commonly meant the midpoint of the concentration-response curve. In the case of `O=C(NCc1ccc(F)cc1)c1cccc(O)c1O`, the results for the IC50 in assay [1] and in assay [2] were more than 333 µM and 108 µM, respectively. The same compound came in with a 50% effective concentration (EC50) in assay [5] of more than 30 µM.
For the compound `O=C1c2c(ccc(O)c2O)CN1N1Cc2ccc(O)c(O)c2S1(=O)=O`, the IC50 in assay [1] worked out at 7 µM; in assay [2] it was 1.2 µM.
For `O=C1c2ccc(O)c(O)c2CN1Cc1ccc(F)cc1`, the half-maximal inhibitory concentration (IC50) in assay [1] and in assay [2] was more than 333 µM throughout.
`NNC(=O)c1cccc(O)c1O`: the IC50 in assay [3] is more than 333 µM; in assay [1] it was more than 333 µM; in assay [2], more than 333 µM; in assay [4] it was 111 µM.
Regarding `O=C1c2c(ccc(O)c2O)CN1N1C(=O)c2cccc(O)c2C1=O`, the IC50 in assay [1] was 42 µM; in assay [2], 11 µM.
The corresponding values for `O=C1c2c(ccc(O)c2O)CN1CCc1ccccc1` are more than 333 µM and 28 µM.
For `O=C1c2c(ccc(O)c2O)CN1Cc1ccccc1`, the 50% inhibitory concentration (IC50) in assay [1] was more than 333 µM; in assay [2] it was 12.3 µM. In assay [5], a half-maximal response (EC50) required 0.68 µM.
For `O=C1c2c(ccc(O)c2O)CN1Cc1ccc(F)cc1`, the 50% inhibitory concentration (IC50) came to 282 µM in assay [1] and 10 µM in assay [2]. In assay [5], this compound came in with an EC50 of 0.77 µM.
On to `COc1cccc(C(=O)NCc2ccc(F)cc2)c1O`, for which the IC50 in assay [1] and in assay [2] was more than 333 µM in each case.
As to `O=C1c2c(ccc(O)c2O)CN1Cc1ccc(F)c(Cl)c1`, the IC50 in assay [1] was found to be 13 µM; in assay [2] it was 0.16 µM.
`O=C1c2c(ccc(O)c2O)CN1Cc1cccc(Cc2ccccc2)c1`: the half-maximal inhibitory concentration (IC50) is more than 333 µM in assay [1] and 172 µM in assay [2].
In the case of `O=C1c2c(ccc(O)c2O)CN1N1C(=O)c2ccc(O)c(O)c2C1=O`, the half-maximal inhibitory concentration (IC50) amounted to 78 µM in assay [1] and 0.6 µM in assay [2].
Taken in the same sequence, the figures for `O=C1c2c(ccc(O)c2O)CN1/N=C/c1cccc(O)c1O` were 87 µM and 54 µM.
The corresponding values for `O=C1c2c(ccc(O)c2O)CN1N1Cc2ccc(O)c(O)c2C1=O` are 124 µM and 41 µM.
Regarding `O=C(NNC(=O)c1cccc(O)c1O)c1cccc(O)c1O`, the IC50 is 8.9 µM in assay [3], 6.9 µM in assay [1], 1.6 µM in assay [2] and 5 µM in assay [4]. This compound showed an EC50 in assay [5] of 1.67 µM.
For `COc1cccc(/C=N/NC(=O)c2cccc(O)c2O)c1OC`, the concentration for half-maximal inhibition (IC50) in assay [3] is more than 333 µM; in assay [1], 112 µM; in assay [2], 68 µM; in assay [4] it was 18 µM.
Taken in the same sequence, the figures for `COc1cccc(C(=O)NNC(=O)c2cccc(OC)c2O)c1O` were 26 µM, 245 µM, 123 µM and 22 µM.
Take `COc1cccc(C(=O)NNC(=O)c2cc3ccccc3cc2O)c1O`: the IC50 was 12 µM in assay [3], more than 333 µM in assay [1], more than 333 µM in assay [2] and 8 µM in assay [4].
As for `COc1cccc(C(=O)NNC(=O)c2cccnc2)c1O`, the IC50 in assay [3], in assay [1], in assay [2] and in assay [4] was more than 333 µM throughout.
Consider `COc1cccc(C(=O)NN)c1O`, for which the IC50 in assay [3], in assay [1], in assay [2] and in assay [4] was more than 333 µM throughout.
For `O=C(NNC(=O)c1ccccc1O)c1ccccc1O`, the IC50 in assay [3] was 3.6 µM; in assay [1], more than 333 µM; in assay [2], more than 333 µM; in assay [4], 1.8 µM. This compound also returned an EC50 in assay [5] of 2.2 µM.
With `O=C1c2c(ccc(O)c2O)CN1Cc1cccc(CBr)c1`, the IC50 in assay [1] was determined as 37 µM; in assay [2], 13 µM.
As for `O=C(NCCNC(=O)c1cccc(O)c1O)c1cccc(O)c1O`, the IC50 worked out at 85 µM in assay [1] and 50 µM in assay [2].
Taken in the same sequence, the figures for `O=C(NCCCNC(=O)c1cccc(O)c1O)c1cccc(O)c1O` were 33 µM and 31 µM.
For the compound `O=C(N/N=C/c1cccc(O)c1O)c1cccc(O)c1O`, the IC50 in assay [3] was found to be 11 µM; in assay [1], 61 µM; in assay [2], 54 µM; in assay [4], 1.3 µM.
As for `O=C(NN1Cc2ccc(O)c(O)c2C1=O)c1ccccc1`, the IC50 in assay [1] was more than 333 µM; in assay [2], 129 µM.
Taken in the same sequence, the figures for `O=C1c2c(ccc(O)c2O)CN1N1C(=O)c2ccccc2C1=O` were more than 333 µM and more than 333 µM.
Taken in the same sequence, the figures for `O=C(NN1Cc2ccc(O)c(O)c2C1=O)c1cccc(O)c1O` were more than 333 µM and 6 µM.
For the compound `O=C1c2c(ccc(O)c2O)CN1N(S(=O)(=O)c1ccc(F)cc1)S(=O)(=O)c1ccc(F)cc1`, the values for the half-inhibitory concentration (IC50) in assay [1] and in assay [2] were more than 333 µM and 33 µM, respectively.
Taken in the same sequence, the figures for `COc1cccc(C(=O)N/N=C/c2ccc(F)cc2)c1O` were more than 333 µM and more than 333 µM.
`O=C1c2cccc(O)c2C(=O)N1Cc1ccc(F)cc1`: the IC50 in assay [1] and in assay [2] was more than 333 µM each time.
In the case of `O=C1c2c(ccc(O)c2O)CN1N1C(=O)c2cc(O)c(O)cc2C1=O`, the IC50 in assay [1] stood at 6.7 µM; in assay [2], 0.81 µM.
Taken in the same sequence, the figures for `O=C1c2c(ccc(O)c2O)CN1/N=C/c1ccc(F)cc1` were more than 333 µM and more than 333 µM.
With `O=C(NNC(=O)c1cccc(O)c1O)c1ccccc1O`, the IC50 in assay [3] was 2.8 µM; in assay [1], more than 333 µM; in assay [2], more than 333 µM; in assay [4], 0.5 µM. The same compound gave a half-maximal effective concentration (EC50) in assay [5] of 4.8 µM.
Turning to `O=C1c2c(ccc(O)c2O)CN1N1C(=O)c2ccc(F)cc2C1=O`, the half-maximal inhibitory concentration (IC50) stood at 186 µM in assay [1] and 53 µM in assay [2].
The corresponding values for `O=C1c2c(ccc(O)c2O)CN1N(S(=O)(=O)c1ccc(O)c(O)c1)S(=O)(=O)c1ccc(O)c(O)c1` are 1.6 µM and 0.21 µM.
Consider `O=C(NNC(=O)c1cccc(O)c1O)c1cc2ccccc2cc1O`, for which the IC50 in assay [3] came out at 19 µM; in assay [1], 72 µM; in assay [2], 32 µM; in assay [4] it was 16 µM.
With `O=C1c2c(ccc(O)c2O)CN1Cc1cccc2ccccc12`, the results for the half-maximal inhibitory concentration (IC50) in assay [1] and in assay [2] were 61 µM and 0.74 µM, respectively.
